# Reference: patent US20240307374A1, “FORMULATION OF FURIN INHIBITOR FOR INHALATION” (BP ASSET V, INC., priority 2021, published 2024)
# Entries after “also recorded” stand apart in the source; their conditions may differ. Marks after values point to notes of the source that are not given here.
# Tests used:
# Assay type in all cases: physicochemical
# [1] = DVS (dynamic vapor sorption) moisture uptake; settings: for Moisture Uptake (DVS): 25° C., from 0% RH to 80% RH; for form change after DVS test (XRPD): XRPD before and after DVS
# Experimental: (FIG. 5). Sample weight decreased rapidly when humidity decreased from 10% to 0%, which might be caused by loss of crystalline water.
# DVS was measured via a SMS (Surface Measurement Systems) DVS Intrinsic.
# [2] = Grinding stability; settings: ~30 mg ground manually in a mortar for about 5 minutes
# [3] = Equilibrium solubility in pH buffers (pH 4.0-6.0) with pH adjustment; settings: for S: solubility: RT, with pH adjustment
# [4] = Solubility of freeform in acetone/H2O systems with various water activities; settings: for solubility at 2 days: thermodynamic from solid
# Experimental: (§1) To measure the solubility of freeform in acetone/H2O systems with various water activities, the above experiments were re-performed with addition of aw=0.3 acetone/H2O system. The suspension sample was centrifuged to obtain precipitate and supernatants. Solubility was tested for the supernatants after filtration, and isolated precipitate was tested by XRPD.
# [5] = Thermodynamic relationships study: slurry competition in acetone/H2O systems; settings: RT
# Experimental: Slurry competition was conducted in acetone/H2O systems with various water activities (0.0-1.0). […] Solids were separated and tested by XRPD.
# as §1
# Solids were separated and tested by XRPD.
# [6] = Complexation stability constant test: solubility in HPβCD solutions; settings: for solubility at 24 h: thermodynamic from solid
# Experimental: Additional solid was added into the sample to generate suspension if clear solution was obtained. The suspension was equilibrated via stirring (1000 rpm) for 24 hours. The suspension was centrifuged to obtain precipitate and supernatants. Solubility and pH was determined for the supernatants after filtration, and XRPD was obtained for the isolated precipitate.
# [7] = Solubility of freeform Type D with sugars
# Experimental: The samples were sonicated for about 2 minutes, and the samples were almost clear (little solid was observed) and filtered for clear solution, pH of the solutions were 3.5. About 68.5 mg lactose and sucrose were added into the two solutions, respectively. The two samples were clear after adding sugar, and pH of the two samples remained 3.5. pH of the two solutions was adjusted to 5.1 by adding 1 M NaOH, and no solid precipitated out after pH adjustment.
# The three solutions were stored under 5° C. for three days, and no solid precipitated out after cooling. The concentration and pH were tested for each sample.
# [8] = Equilibrium solubility of freeform Type D in pH=4.0 and 5.0 citrate/phosphate buffers; settings: for Form: XRPD of precipitate; for Form / solubility at 24 h / End pH (24 hours): citrate/phosphate buffer; for Form / solubility at 24 h / solid form after equilibrium (XRPD): 24 hours; for solubility at 24 h: aqueous buffer, thermodynamic from solid; for solid form after equilibrium (XRPD): RT
# Experimental: The suspension was equilibrated via stirring (1000 rpm) for 24 hours. The suspension was centrifuged to obtain precipitate and supernatants. Solubility and pH were tested for the supernatants after filtration, and isolated precipitate was tested by XRPD.
# [9] = pH = 4.0 buffer (50 mM citrate)
# [10] = pH = 5.0 buffer (50 mM citrate)
# [11] = pH = 6.0 buffer (50 mM citrate)
# [12] = pH = 6.0 buffer (50 mM phosphate)
# [13] = 30 mmol freeform Type D + 30 mmol citric acid, initial pH 3.6
# [14] = 50 mmol freeform Type D + 50 mmol citric acid + ~200 mmol lactose, initial pH 5.1
# [15] = 50 mmol freeform Type D + 50 mmol citric acid + ~200 mmol sucrose, initial pH 5.1
smiles,measurement,setting,value
CC(=O)NCC1CCN(Cc2cc(Oc3ccc(N4CCN(CCC(=O)O)CC4)nc3)nc(-c3cc(Cl)cc(Cl)c3)c2)CC1 [Freeform Type A],Moisture Uptake (DVS),[1],6.8% (from 0% RH to 80% RH)
same,form change after DVS test (XRPD),[1],No form change
same,crystallinity after grinding (XRPD),[2],decreased after grinding
same,form change after equilibrium in all media,"[3]; all media, 24 hours",No form change
same,Area % (purity of supernatant),[3]; [9],99.9 Area %
same,"pH (final, after adjustment where adjusted)",[3]; [9],4.2*
same,pH before adjustment (in brackets),"[3]; pH = 4.0 buffer (50 mM citrate), 24 hours",(5.0)
same,S: solubility,[3]; [9],>36.9^# mg/mL
same,Area % (purity of supernatant),[3]; [10],99.6 Area %
same,FC: form change (XRPD of precipitate),[3]; [10],N (N: solid form not changed)
same,"pH (final, after adjustment where adjusted)",[3]; [10],5.2
same,S: solubility,[3]; [10],3.31 mg/mL
same,Area % (purity of supernatant),[3]; [11],99.6 Area %
same,FC: form change (XRPD of precipitate),[3]; [11],N (N: solid form not changed)
same,"pH (final, after adjustment where adjusted)",[3]; [11],6.0
same,S: solubility,[3]; [11],0.15 mg/mL
same,Area % (purity of supernatant),[3]; [12],99.3 Area %
same,FC: form change (XRPD of precipitate),[3]; [12],N (N: solid form not changed)
same,"pH (final, after adjustment where adjusted)",[3]; [12],6.0
same,S: solubility,[3]; [12],0.11 mg/mL
same,solubility,"[4]; Acetone/H2O (605:395), aw 0.8, RT",10.265 (Type A) mg/mL
same,solubility at 2 days,"[4]; acetone/H2O (605:395), aw 0.8, organic solvent or mixture, Acetone/H2O (605:395), aw 0.8, RT",10300 µg/mL
same,solubility at 2 days,"[4]; acetone/H2O (858:142), aw 0.6, organic solvent or mixture, Acetone/H2O (858:142), aw 0.6, RT",3290 µg/mL
same,solubility at 2 days,"[4]; acetone/H2O (950:50), aw 0.4, organic solvent or mixture, Acetone/H2O (950:50), aw 0.4, RT",1160 µg/mL
same,solubility at 2 days,"[4]; acetone/H2O (973:27), aw 0.3, organic solvent or mixture, Acetone/H2O (973:27), aw 0.3, RT",1440 µg/mL
same,solubility at 2 days,"[4]; water (aw 1), water, H2O, aw 1, RT",10 µg/mL
CC(=O)NCC1CCN(Cc2cc(Oc3ccc(N4CCN(CCC(=O)O)CC4)nc3)nc(-c3cc(Cl)cc(Cl)c3)c2)CC1 [Freeform Type D],Moisture Uptake (DVS),[1],6.3% (from 0% RH to 80% RH)
same,form change after DVS test (XRPD),[1],No form change
same,thermodynamic relationship of the forms,[5],thermodynamic form at the ambient conditions; also recorded: more stable hydrate form compared to freeform Type A
same,solubility at 24 h,"[6]; 5% (w/w) HPβCD solution, aqueous with cosolvent or surfactant or cyclodextrin, 5% (w/w) HPβCD, RT, 24 hours, final pH 7.3, read-out: Solubility",420 µg/mL
same,solubility at 24 h,"[6]; 5% (w/w) HPβCD solution, pH 7.3, aqueous with cosolvent or surfactant or cyclodextrin, 5% HPβCD (40.78 mmol/L), read-out: API Solubility",660 µM
same,solubility at 24 h,"[6]; 10% (w/w) HPβCD solution, aqueous with cosolvent or surfactant or cyclodextrin, 10% (w/w) HPβCD, RT, 24 hours, final pH 7.2, read-out: Solubility",940 µg/mL
same,solubility at 24 h,"[6]; 10% (w/w) HPβCD solution, pH 7.2, aqueous with cosolvent or surfactant or cyclodextrin, 10% HPβCD (81.56 mmol/L), read-out: API Solubility",1470 µM
same,solubility at 24 h,"[6]; 15% (w/w) HPβCD solution, aqueous with cosolvent or surfactant or cyclodextrin, 15% (w/w) HPβCD, RT, 24 hours, final pH 7.1, read-out: Solubility",1420 µg/mL
same,solubility at 24 h,"[6]; 15% (w/w) HPβCD solution, pH 7.1, aqueous with cosolvent or surfactant or cyclodextrin, 15% HPβCD (122.34 mmol/L), read-out: API Solubility",2220 µM
same,solubility at 24 h,"[6]; 20% (w/w) HPβCD solution, aqueous with cosolvent or surfactant or cyclodextrin, 20% (w/w) HPβCD, RT, 24 hours, final pH 7.0, read-out: Solubility",2090 µg/mL
same,solubility at 24 h,"[6]; 20% (w/w) HPβCD solution, pH 7, aqueous with cosolvent or surfactant or cyclodextrin, 20% HPβCD (163.11 mmol/L), read-out: API Solubility",3260 µM
same,solubility at 24 h,"[6]; 25% (w/w) HPβCD solution, aqueous with cosolvent or surfactant or cyclodextrin, 25% (w/w) HPβCD, RT, 24 hours, final pH 7.0, read-out: Solubility",2890 µg/mL
same,solubility at 24 h,"[6]; 25% (w/w) HPβCD solution, pH 7, aqueous with cosolvent or surfactant or cyclodextrin, 25% HPβCD (203.89 mmol/L), read-out: API Solubility",4510 µM
same,form change during solubility evaluation (XRPD),"[6]; HPβCD solutions, 24 hours",No form change
same,complexation stability constant K^1:1,"[6]; HPβCD, Higuchi-Connors phase-solubility method",1529 M⁻¹
same,Concentration,[7]; [13],18110 µg/mL
same,End pH (24 hours),[7]; [13],3.6
same,Purity,[7]; [13],99.8 Area %
same,Concentration,[7]; [14],26450 µg/mL
same,End pH (24 hours),[7]; [14],5.1
same,Purity,[7]; [14],99.8 Area %
same,Concentration,[7]; [15],26500 µg/mL
same,End pH (24 hours),[7]; [15],5.3
same,Purity,[7]; [15],99.8 Area %
same,Form,"[8]; initial pH 4.0, RT",Low crystallinity*
same,Form,"[8]; initial pH 5.0, RT",Freeform Type D
same,solubility at 24 h,"[8]; initial pH 4.0, RT",30600 µg/mL
same,solubility at 24 h,"[8]; initial pH 5.0, RT",1290 µg/mL
same,End pH (24 hours),"[8]; initial pH 4.0, RT",5.2
same,End pH (24 hours),"[8]; initial pH 5.0, RT",5.2
same,solid form after equilibrium (XRPD),[8]; pH=4.0 citrate/phosphate,Low crystallinity sample
same,solid form after equilibrium (XRPD),[8]; pH=5.0 citrate/phosphate,no form change
